Source: US20240118268A1, “BIOMARKERS ON CELLULAR ENDOCRINE MODELS FOR ENDOCRINE DISRUPTION ASSESSMENT” (priority 2020, published 2024)
Like-named read-outs stand apart in the source and are kept apart here.

Tests used:
JEG-Tox cells [1] = test: Chromatin condensation (Hoechst 33342) as a hallmark of apoptosis; assay type: cell-based, human; conditions: 24 h
Description: The UV fluorescent probe Hoechst 33342 enters living and apoptotic cells, intercalating into DNA. The fluorescent signal is proportional to chromatin condensation in apoptosis. The cells were incubated with Hoechst 33342 at 10 μg/mL for 30 minutes at room temperature. The fluorescence signal was read (λex=360 nm, λem=460 nm) using a cytofluorometer (Spark).

JEG-3 cells = test: Neutral red cell viability of JEG-3 cells with SLS or PFOA in 10% or 2.5% FBS; conditions: for living cells: 2.5% FBS, 24 h
Description: (§1) The choriocarcinoma-derived JEG-3 cell-line (ATCC® HTB-36™, Manassas, VA, USA), was grown as recommended by ATCC: Minimum Essential Medium Eagle's medium supplemented with 10% fetal bovine serum, 2 mM of glutamine, 50 IU/mL of penicillin and 50 IU/mL of streptomycin. Cells were detached using trypsin, counted, and then seeded at 80,000 cells/mL in 96-well microplates (200 μL by well) and Nunc® Lab-Tek® II Chamber Slide™ system for immunostaining.
(§2) Cells were incubated with sodium lauryl sulfate or perfluorooctanoic acid diluted in culture medium supplemented with either 2.5% or 10% FBS. After 24 hours, cell viability was evaluated using the neutral red assay. Neutral Red solution at 0.4% in water was diluted in culture medium with a ratio of 1:79 to give a final concentration of 50 μg/mL. Neutral Red was distributed in the plates for a 3-hour incubation time at 37° C. The cells were then rinsed with PBS to remove any remaining unincorporated dye. The dye was then released from the cells using a lysis solution (1% acetic acid, 50% ethanol and 49% H2O) and the fluorescence was measured (λex=540 nm, λem=600 nm) using Spark microplate fluorometer (Tecan, Mannedorf, Switzerland).

[2] = as above; conditions: human
Description: as §1, §2

JEG-Tox cells [3] = test: Reactive Oxygen Species (ROS) production, H2DCF-DA assay; assay type: cell-based, human; conditions: 48 h
Description: Intracellular ROS were measured using 2′,7′-dichlorodihydro-fluorescein diacetate (H2DCF-DA, Life Technologies), which is hydrolyzed by cell esterases in 2′,7′-dichlorodihydrofluorescein and oxidized by ROS in highly fluorescent 2′,7′-dichlorofluorescein. A 10 μM solution of H2DCF-DA was distributed into wells. After a 20-min incubation period at 37° C., the fluorescence signal was read (λex=485 nm, λem=535 nm) using a Spark microplate reader.

caspase-9 = test: Caspase 9 activity, Caspase-Glo 9 Assay; assay type: cell-based, human; conditions: 72 h
Description: Caspase 9 activity was evaluated using the Caspase-Glo® 9 Assay kit. The assay was performed according to the manufacturer's instructions. Luminescence was quantified with a Spark microplate reader.

P2X7 receptor = biological target: T1, P2X7 receptor (Homo sapiens, UniProt Q99572); assay type: cell-based; conditions: for endocrine disruptor according to the definition of the European Union: JEG-3 cells in 2.5% serum, by measuring the activity of the P2X7 receptor
T1 construct: P2X7 receptor is expressed by human placenta and JEG-Tox; endogenous in cells; host or cells: JEG-3 human trophoblast cell line (ATCC HTB-36) cultured in 2.5% FBS (JEG-Tox)
T1 sequence (Q99572 1-595): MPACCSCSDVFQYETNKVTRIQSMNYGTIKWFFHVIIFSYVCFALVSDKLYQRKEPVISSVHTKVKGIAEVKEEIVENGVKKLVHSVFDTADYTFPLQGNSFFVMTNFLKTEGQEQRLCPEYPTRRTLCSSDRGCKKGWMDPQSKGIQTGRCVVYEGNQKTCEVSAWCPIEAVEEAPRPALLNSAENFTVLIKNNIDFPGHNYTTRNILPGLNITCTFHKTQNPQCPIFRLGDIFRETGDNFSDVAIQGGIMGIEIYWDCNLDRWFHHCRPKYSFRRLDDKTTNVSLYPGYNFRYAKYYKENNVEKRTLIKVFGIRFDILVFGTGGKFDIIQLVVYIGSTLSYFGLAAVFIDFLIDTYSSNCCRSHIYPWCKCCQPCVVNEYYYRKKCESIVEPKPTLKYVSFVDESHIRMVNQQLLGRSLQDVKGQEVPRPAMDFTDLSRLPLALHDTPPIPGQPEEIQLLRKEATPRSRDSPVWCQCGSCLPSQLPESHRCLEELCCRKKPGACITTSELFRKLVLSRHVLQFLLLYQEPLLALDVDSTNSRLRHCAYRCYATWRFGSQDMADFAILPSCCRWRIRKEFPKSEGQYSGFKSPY
Description: (§3) P2X7 cell death receptor activation was evaluated using the YO-PRO-1® assay (Rat et al. J Biol Methods. 2017 Jan. 20; 4(1):e64). YO-PRO-1® probe only enters into cells after P2X7 receptor activation-induced pore opening, and binds to DNA, emitting fluorescence. A 1 mM YO-PRO-1 stock solution was diluted at 1/500 in PBS just before use and distributed into the wells of the microplate. After a 10-minute incubation time at room temperature, fluorescence signal was read (λex=491 nm, λem=509 nm) with a Spark cytofluorometer.
as §3, with “al., 2017).” for “al. J Biol Methods. 2017 Jan. 20; 4(1):e64).”, “(λex=485” for “(λex=491”, “λem=531” for “λem=509”

JEG-Tox cells [4] = test: Neutral Red cell viability assay on JEG-Tox cells, 72 h; assay type: cell-based, human; conditions: 72 h
Description: (§4) The JEG-3 human trophoblast cell line, derived from a human placental carcinoma, was obtained from the American Type Culture Collection (ATCC HTB-36). Cells were cultured in minimum Essential medium, supplemented with 10% fetal bovine serum (FBS), 1% L-glutamine, 0.5% penicillin and streptomycinin, in 75 cm2 polystyrene flasks. Cell cultures were maintained in a cell culture incubator (37° C., saturated humidity, 5% CO2). When the JEG-3 cells reached subconfluency, they were detached using trypsin-EDTA and counted. The cellular suspension was diluted and seeded either in 96-well microplates at a cellular density of 80,000 cells/mL or in 6-well microplates at 120,000 cells/mL, then kept at 37° C. for 24 h. The cells were incubated with EDCs according to example 1.
(§5) Cell viability was evaluated using the Neutral Red assay. The Neutral Red solution at 0.4% (m/v in water) was diluted in cell culture medium to obtain a working concentration of 50 μg/mL. […] The cells were then rinsed with PBS and lysed with a solution of acetic acid-ethanol (ethanol 50.6%, water 48.4% and acetic acid 1%). After homogenization, the fluorescence signal was scanned (λexc=540 nm, λem=600 nm) with a Tecan Spark microplate reader (Mannedorf, Switzerland). The cell viability was calculated compared to the control cells (the fluorescence of the control cells as 100% viability).

[5] = as above; assay type: cell-based, human; conditions: human, 100 μM, 72 h, read-out: cell viability
Description: as §4, §5

caspase-1 = test: Caspase 1 activity, Caspase-Glo 1 Inflammasome Assay; assay type: cell-based, human; conditions: 72 h
Description: Caspase 1 activity was evaluated using the Caspase-Glo® 1 1 Inflammasome Assay kit. The assay was performed according to the manufacturer's instructions. Luminescence was quantified with a Spark microplate reader.
Caspase 1 activity was evaluated using the Caspase-Glo®1 Inflammasome Assay kit. The assay was performed according to the manufacturer's instructions. Luminescence was quantified with a Spark microplate reader.

O=C(O)C(F)(F)C(F)(F)C(F)(F)C(F)(F)C(F)(F)C(F)(F)C(F)(F)F [PFOA, perfluorooctanoic acid]
concentration at which chromatin condensation was initiated (JEG-Tox cells [1]): 20 µg/mL | living cells (JEG-3 cells; 80 μg/mL): 68% | living cells (JEG-3 cells; 120 μg/mL): 27% | concentration at which cytotoxicity was revealed (JEG-3 cells; diluted in 2.5% FBS): 200 µM | concentration at which only a slight loss of cell viability was observed (JEG-3 cells; diluted in 10% FBS): 300 µM | viability at 24 h, 120 μg/mL [2]: 85%

CC(C)(c1ccc(O)cc1)c1ccc(O)cc1 [bisphenol A, Bisphenol A]
effect on ROS production (JEG-Tox cells [3]): no effect | caspase-9 activity compared to control (caspase-9; 50 μM (highest concentration)): 1.28 fold change | P2X7 receptor activation compared to control (P2X7 receptor; 20 μM, 72 h): 1.21 fold change | P2X7 receptor activation compared to control (P2X7 receptor; 25 μM, 72 h): 1.26 fold change | P2X7 receptor activation compared to control (P2X7 receptor; 50 μM, 72 h): 1.34 fold change | endocrine disruptor according to the definition of the European Union (P2X7 receptor): is an endocrine disruptor | P2X7 receptor activation (in words) (P2X7 receptor; JEG-Tox, 72 h): triggered P2X7 receptor activation | P2X7 activation (concentration) (P2X7 receptor; Table 4 summary, 72 h): 5 to 20 µM | concentration up to which no loss of cell viability was observed (JEG-Tox cells [4]): up to 20 μM | cytotoxicity (concentration) (JEG-Tox cells [4]; Table 4 summary, loss of viability >= 30% counted as cytotoxic): No | viability at 72 h, 100 µM ([5]; JEG-Tox cells): 18% | caspase-1 activity compared to control (caspase-1; 50 μM): 1.57 fold change | effect on caspase-1 activity (caspase-1): activated caspase-1 | Casp-1 activation (concentration) (caspase-1; Table 4 summary): 20 µM | caspase-1 activity compared to control (caspase-1; highest concentration tested): 1.64 fold change

Oc1ccc(Cc2ccc(O)cc2)cc1 [bisphenol F, Bisphenol F]
ROS production compared to control (JEG-Tox cells [3]; 25 μM): 2.5 fold change | ROS production compared to control (JEG-Tox cells [3]; 50 μM): 2.5 fold change | concentration at which chromatin condensation was initiated (JEG-Tox cells [1]): 5 µg/mL | caspase-9 activity compared to control (caspase-9; 25 μM): 1.47 fold change | caspase-9 activity compared to control (caspase-9; 50 μM (highest concentration)): 1.67 fold change | P2X7 receptor activation compared to control (P2X7 receptor; 25 μM, 72 h): 1.24 fold change | P2X7 receptor activation compared to control (P2X7 receptor; 50 μM, 72 h): 1.46 fold change | endocrine disruptor according to the definition of the European Union (P2X7 receptor): corresponds also to an endocrine disruptor | viability at 72 h, 100 µM [5]: 64% | caspase-1 activity compared to control (caspase-1; 25 μM): 1.60 fold change | caspase-1 activity compared to control (caspase-1; 50 μM): 2.61 fold change
